1 compound from PMC6273270, “Flavonoid Interaction with a Chitinase from Grape Berry Skin: Protein Identification and Modulation of the Enzymatic Activity” (Molecules, 2016) can be followed below.

In the test the test system is T1, chitinase from S. griseus.
T1 construct: gene chiC; commercial native preparation (Sigma Aldrich), low purity, antibody-reactive band about 23 kDa; authors ascribe it to family 19 chitinase C
Kind of test: fluorimetric release of 4-methylumbelliferone, Michaelis-Menten fit. The conditions noted are these: McIlvain's buffer, pH 5.5, 37 °C, 1 h; no flavonoid (control of the quercetin series); apparent; commercial low-purity enzyme. Format: biochemical, Streptomyces griseus. The source says: fluorimetric release of 4-methylumbelliferone, Michaelis-Menten fit on chitinase from S. griseus

What is called Km is the substrate concentration at which the rate is half of its maximum. In the case of `CC(=O)N[C@H]1[C@H](Oc2ccc3c(C)cc(=O)oc3c2)O[C@H](CO)[C@@H](O[C@@H]2O[C@H](CO)[C@@H](O[C@@H]3O[C@H](CO)[C@@H](O)[C@H](O)[C@H]3NC(C)=O)[C@H](O)[C@H]2NC(C)=O)[C@@H]1O` [4-methylumbelliferyl β-d-N,N′,N′-tri-acetyl-chitotrioside], the Km was 35.4 ± 4.18 µM.
